The values that follow come from PMC4447534 (ChemMedChem, 2015).

For one data set, the system named is Vero cells. Kind of data set: Cytotoxicity for Vero cells. Type of data set: cell-based. To be noted: one experiment in triplicate, means ± S.D.
The test system of data set [1] is T. cruzi (amastigotes). Nature of the data set: microbe, parasite or virus in culture. To be noted: Trypanosoma cruzi, read-out: T. cruzi ED50.
In data set [2] the test system is T. cruzi (amastigotes). To be noted: for T. cruzi ED50: intracellular amastigotes, one experiment in triplicate, means ± S.D.; for SI (T. cruzi): selectivity index, Vero cells versus T. cruzi.
The test system of data set [3] is murine models of Chagas disease. To be noted: ketoconazole as positive control; cited from earlier work.
The test system of data set [4] is amastigotes of Trypanosoma cruzi. To be noted: cited from earlier work.
[5] abbreviates: selectivity index, Vero cells versus T. gondii.

Values joined by “and” are separate entries in the source; they are usually repeats but may differ in a detail not shown here. Identical values can stand only once. Like-named read-outs stand apart in the source and are kept apart here. Bounds are passed on as bounds.

Take `Cc1ccc(S(=O)(=O)OCCOc2cccnc2)cc1` [Compound 71, 3-Pyridyloxyethyl 4-Toluenesulfonate]: the “Cytotoxicity ED50” value in the data set on Vero cells was over 200 µM. Besides, the IC50 in the data set on T. cruzi (amastigotes) [1] was over 10 µM.
On to `N#CSCCOc1ccc(Oc2ccc(C(F)(F)F)cc2)cc1` [Compound 16, 4-[(4-Trifluoro)phenoxy]phenoxyethyl Thiocyanate], for which the “T. cruzi ED50” value with T. cruzi (amastigotes) [2] was 9.2 µM and 9.2 ± 1.8 µM. Moreover, the “Cytotoxicity ED50” value with Vero cells was over 50.0 µM. Besides, in the data set on T. gondii (tachyzoites), the “SI (T. gondii)” value is recorded as over 26.7; the “T. gondii ED50” value is 1.9 µM and 1.86 ± 0.38 µM.
For the molecule `COc1ccccc1Oc1cccc(OCCSC#N)c1` [Compound 49, 3-(2-Methoxyphenoxy)phenoxyethyl Thiocyanate], the “Cytotoxicity ED50” value in the data set with Vero cells stood at 115.7 ± 39.8 µM. Besides, the “SI (T. gondii)” value in the data set with T. gondii (tachyzoites) (setting [5]) is listed as 41.5. Besides, the IC50 with T. cruzi (amastigotes) [1] amounted to 11.7 ± 2.52 µM.
Turning to `N#CSCCOc1ccc(Oc2ccccc2)cc1` [WC-9, 4-phenoxyphenoxyethyl thiocyanate, reference compound], the “Cytotoxicity ED50” value with Vero cells came to 82.6 ± 7.3 µM. The effect on parasitemia entry in data set [3] is given as “able to impair parasitemia”. The IC50 in the data set on T. cruzi (amastigotes) [1] worked out at 5 ± 1.1 µM. For the same molecule, in data set [4], the “ED50 against amastigotes of Trypanosoma cruzi” value is “low nanomolar range”.
Take `N#CSCCOc1ccc(Oc2ccc3ccccc3c2)cc1` [Compound 20, β-Naphtyloxyphenoxyethyl Thiocyanate]: the “Cytotoxicity ED50” value in the data set with Vero cells is 104.7 ± 7.8 µM. Further, the “T. gondii ED50” value in the data set on T. gondii (tachyzoites) is 2.3 µM and 2.25 ± 0.84 µM. Besides, the “SI (T. gondii)” value in the data set on T. gondii (tachyzoites) (setting [5]) came to 46.5.
On to `N#CSCCOc1cccc(Oc2ccccn2)c1` [Compound 60, 3-(2-Pyridyloxy)phenoxyethyl Thiocyanate], for which the “T. cruzi ED50” value in the data set on T. cruzi (amastigotes) [2] is on record as “free of antiparasitic activity”. For the same molecule, the “Cytotoxicity ED50” value with Vero cells was over 200.0 µM. The IC50 with T. cruzi (amastigotes) [1] is over 10 µM.
As to `N#CSCCOc1cccc(Oc2ccc(Cl)cc2)c1` [Compound 48, 3-(4-Chlorophenoxy)phenoxyethyl Thiocyanate], in the data set with T. cruzi (amastigotes) [2], the “T. cruzi ED50” value is listed as “very low micromolar range” and the “SI (T. cruzi)” value worked out at 15.7. In addition, the “Cytotoxicity ED50” value in the data set on Vero cells turned out to be 98.4 ± 5.8 µM. The IC50 with T. cruzi (amastigotes) [1] is 6.27 ± 0.75 µM.
As for `N#CSCCOc1ccc(Oc2cccc(C(F)(F)F)c2)cc1` [Compound 15, 4-[(3-Trifluoro)phenoxy]phenoxyethyl Thiocyanate], in the data set with T. cruzi (amastigotes) [2], the “T. cruzi ED50” value was 10.0 µM and 10.0 ± 2.5 µM; the “SI (T. cruzi)” value is reported as over 5.0. Besides, the “Cytotoxicity ED50” value with Vero cells is over 50.0 µM. Also, in the data set on T. gondii (tachyzoites), the “SI (T. gondii)” value was over 31.1; the “T. gondii ED50” value is 1.6 µM and 1.66 ± 0.35 µM.
As for `N#CSCCOc1cccc(Oc2cccnc2)c1` [Compound 61, 3-(3-Pyridyn-3-yloxy)phenoxyethyl Thiocyanate], in the data set with T. cruzi (amastigotes) [2], the “SI (T. cruzi)” value stood at 16.6. In addition, in the data set with Vero cells, the “Cytotoxicity ED50” value came out at 124.0 ± 12.0 µM. For the same molecule, in the data set on T. gondii (tachyzoites), the “SI (T. gondii)” value is recorded as 33.5.
Turning to `COc1cccc(Oc2cccc(OCCSC#N)c2)c1` [Compound 50, 3-(3-Methoxyphenoxy)-phenoxyethyl Thiocyanate], the “SI (T. cruzi)” value in the data set with T. cruzi (amastigotes) [2] was found to be 11.0. Besides, the “Cytotoxicity ED50” value in the data set on Vero cells came to 96.2 ± 37.5 µM. In the data set on T. gondii (tachyzoites) (setting [5]), the “SI (T. gondii)” value came to 23.9. The IC50 in the data set on T. cruzi (amastigotes) [1] amounted to 8.75 ± 0.33 µM.
Regarding `O=C(Cn1ccnc1[N+](=O)[O-])NCc1ccccc1` [Benznidazole, reference compound], the IC50 in the data set with T. cruzi (amastigotes) [1] amounted to 1.92 ± 0.55 µM.
As for `N#CSCCOc1cccc(Oc2ccncc2)c1` [Compound 62, 3-(4-Pyridyloxy)phenoxyethyl Thiocyanate], the “T. cruzi ED50” value in the data set with T. cruzi (amastigotes) [2] is on record as “free of antiparasitic activity”. Also, in the data set with Vero cells, the “Cytotoxicity ED50” value was over 200.0 µM. The IC50 in the data set with T. cruzi (amastigotes) [1] is over 10 µM.
For `N#CSCCOc1ccc(Oc2ccccn2)cc1` [Compound 29, 4-(Pyridin-2-yloxy)phenoxyethyl Thiocyante], the “Cytotoxicity ED50” value with Vero cells is over 200.0 µM.
With `N#CSCCOc1cccnc1` [Compound 72, 3-Pyridyloxyethyl Thiocyanate], in the data set with T. cruzi (amastigotes) [2], the “T. cruzi ED50” value is “devoid of antiparasitic activity”. The “T. gondii ED50” value in the data set on T. gondii (tachyzoites) (tachyzoites, one experiment in triplicate, means ± S.D.) is listed as “devoid of antiparasitic activity”.
In the case of “α-Naphtyloxyphenylethyl Thiocyanate [Compound 24]”, the “SI (T. cruzi)” value with T. cruzi (amastigotes) [2] is reported as over 7. In addition, the “T. gondii ED50” value in the data set with T. gondii (tachyzoites) is 2.9 µM and 2.87 ± 0.19 µM. Further, in the data set on T. gondii (tachyzoites) (setting [5]), the “SI (T. gondii)” value turned out to be 24.4.
Take `N#CSCCOc1ccc(Br)cc1Br` [Compound 68, 2,4-Dibromophenoxyethyl Thiocyanate]: the “T. cruzi ED50” value in the data set on T. cruzi (amastigotes) [2] was “inactive”. In addition, in the data set with Vero cells, the “Cytotoxicity ED50” value was over 50.0 µM. The IC50 with T. cruzi (amastigotes) [1] was over 20 µM.
Turning to `[N-]=[N+]=NCCOc1ccc(Oc2ccccc2)cc1` [Compound 64, 4-Phenoxyphenoxyethyl Azide], the “Cytotoxicity ED50” value in the data set on Vero cells is over 200.0 µM. In the data set with T. cruzi (amastigotes) [1], the IC50 was over 10 µM.
Turning to `N#CSCCOc1cccc(Oc2cccc(Cl)c2)c1` [Compound 47, 3-(3-Chlorophenoxy)phenoxyethyl Thiocyanate], the “T. cruzi ED50” value in the data set with T. cruzi (amastigotes) [2] is “vanishing biological activity”. The “Cytotoxicity ED50” value with Vero cells is over 200.0 µM. The IC50 in the data set with T. cruzi (amastigotes) [1] was over 20 µM.
As to `N#CSCCOc1cccc(Oc2ccccc2Cl)c1` [Compound 46, 3-(2-Chlorophenoxy)phenoxyethyl Thiocyanate], the “Cytotoxicity ED50” value in the data set on Vero cells was over 50.0 µM. In the data set on T. gondii (tachyzoites) (setting [5]), the “SI (T. gondii)” value stood at 23.4. The IC50 in the data set on T. cruzi (amastigotes) [1] is 11.9 ± 0.38 µM.
